From PubChem BioAssay (NCI) come the findings set out here.

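Exposure lasted 48 hours, with cells grown in 96-well plates and compounds tested at five concentrations. TGI denotes the concentration required for complete inhibition of growth.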

One experiment concerns A549 NSCLC. Put plainly: inhibition of tumour cell growth, NCI panel, 48 h.
As for `C=C(c1ccccc1)C1ON(C)CCc2cc(OC)c(OC)cc21` (stereo unspecified), the TGI is over 100 µM.
Molecule `Cc1c2cnccc2c(C)c2c1[nH]c1ccc(O)cc12` came in with a TGI of over 10 µM.
For `C=C1C(=O)C([Si](C)(C)C)=C2C=C(C)C3(CC3)C12C` (stereo unspecified), the TGI was over 100 µM.
`NC(=O)c1cc2ccccc2oc1=Nc1ccccc1` gave a TGI of over 100 µM.

A further experiment concerns NCI-H460 lung. Put plainly: inhibition of tumour cell growth, NCI panel, 48 h.
`C=C(c1ccccc1)C1ON(C)CCc2cc(OC)c(OC)cc21` (stereo unspecified): the TGI was over 100 µM.
The molecule `Cc1c2cnccc2c(C)c2c1[nH]c1ccc(O)cc12` displayed a TGI of 2.63 µM.
For the molecule `C=C1C(=O)C([Si](C)(C)C)=C2C=C(C)C3(CC3)C12C` (stereo unspecified), the TGI was over 100 µM.
Take `NC(=O)c1cc2ccccc2oc1=Nc1ccccc1`: the TGI is over 100 µM.

Another experiment concerns HCT-15 colon. Put plainly: inhibition of tumour cell growth, NCI panel, 48 h.
In turn, `C=C(c1ccccc1)C1ON(C)CCc2cc(OC)c(OC)cc21` (stereo unspecified) yielded a TGI of over 100 µM.
For `Cc1c2cnccc2c(C)c2c1[nH]c1ccc(O)cc12`, the TGI was over 10 µM.
As to `C=C1C(=O)C([Si](C)(C)C)=C2C=C(C)C3(CC3)C12C` (stereo unspecified), the TGI is over 100 µM.
Same read-out and setting: the value for `NC(=O)c1cc2ccccc2oc1=Nc1ccccc1` was over 100 µM.

A further experiment has as its system COLO 205 colon. Put plainly: inhibition of tumour cell growth, NCI panel, 48 h.
On to `C=C(c1ccccc1)C1ON(C)CCc2cc(OC)c(OC)cc21` (stereo unspecified), for which the TGI was over 100 µM.
Same read-out and setting: the value for `Cc1c2cnccc2c(C)c2c1[nH]c1ccc(O)cc12` was over 10 µM; that for `C=C1C(=O)C([Si](C)(C)C)=C2C=C(C)C3(CC3)C12C` (stereo unspecified) was 36.4 µM.
`NC(=O)c1cc2ccccc2oc1=Nc1ccccc1` came in with a TGI of over 100 µM.

The next experiment deals with OVCAR-5 ovarian. Put plainly: inhibition of tumour cell growth, NCI panel, 48 h.
`C=C(c1ccccc1)C1ON(C)CCc2cc(OC)c(OC)cc21` (stereo unspecified) showed a TGI of over 100 µM.
The molecule `Cc1c2cnccc2c(C)c2c1[nH]c1ccc(O)cc12` registered a TGI of over 10 µM.
Take `C=C1C(=O)C([Si](C)(C)C)=C2C=C(C)C3(CC3)C12C` (stereo unspecified): the TGI is over 100 µM.
As for `NC(=O)c1cc2ccccc2oc1=Nc1ccccc1`, the TGI is over 100 µM.

The next experiment relates to EKVX NSCLC. Put plainly: inhibition of tumour cell growth, NCI panel, 48 h.
The molecule `C=C(c1ccccc1)C1ON(C)CCc2cc(OC)c(OC)cc21` (stereo unspecified) registered a TGI of over 100 µM.
Regarding `Cc1c2cnccc2c(C)c2c1[nH]c1ccc(O)cc12`, the TGI is over 10 µM.
Still for that read-out and setting: next, `C=C1C(=O)C([Si](C)(C)C)=C2C=C(C)C3(CC3)C12C` (stereo unspecified): 42.2 µM.
Consider `NC(=O)c1cc2ccccc2oc1=Nc1ccccc1`, for which the TGI is over 100 µM.

In another experiment the test system is SF-295 CNS. In words: inhibition of tumour cell growth, NCI panel, 48 h.
`C=C(c1ccccc1)C1ON(C)CCc2cc(OC)c(OC)cc21` (stereo unspecified) gave a TGI of over 100 µM.
`Cc1c2cnccc2c(C)c2c1[nH]c1ccc(O)cc12` registered a TGI of 5.57 µM.
The molecule `C=C1C(=O)C([Si](C)(C)C)=C2C=C(C)C3(CC3)C12C` (stereo unspecified) yielded a TGI of over 100 µM.

The next experiment relates to SK-MEL-2 melanoma. Put plainly: inhibition of tumour cell growth, NCI panel, 48 h.
Take `Cc1c2cnccc2c(C)c2c1[nH]c1ccc(O)cc12`: the TGI was over 10 µM.
For the molecule `C=C1C(=O)C([Si](C)(C)C)=C2C=C(C)C3(CC3)C12C` (stereo unspecified), the TGI worked out at 61.1 µM.
On to `NC(=O)c1cc2ccccc2oc1=Nc1ccccc1`, for which the TGI is over 100 µM.

The subject of the next experiment is BT-549 breast. In words: inhibition of tumour cell growth, NCI panel, 48 h.
Molecule `C=C(c1ccccc1)C1ON(C)CCc2cc(OC)c(OC)cc21` (stereo unspecified) registered a TGI of over 100 µM.
In turn, `Cc1c2cnccc2c(C)c2c1[nH]c1ccc(O)cc12` showed a TGI of over 10 µM.
Same read-out and setting: the value for `C=C1C(=O)C([Si](C)(C)C)=C2C=C(C)C3(CC3)C12C` (stereo unspecified) was 55 µM; that for `NC(=O)c1cc2ccccc2oc1=Nc1ccccc1` was over 100 µM.

In a further experiment the test system is MDA-MB-231 breast. Put plainly: inhibition of tumour cell growth, NCI panel, 48 h.
As for `C=C(c1ccccc1)C1ON(C)CCc2cc(OC)c(OC)cc21` (stereo unspecified), the TGI is over 100 µM.
On the same count and under the same terms, next, `Cc1c2cnccc2c(C)c2c1[nH]c1ccc(O)cc12`: 4.13 µM; `C=C1C(=O)C([Si](C)(C)C)=C2C=C(C)C3(CC3)C12C` (stereo unspecified): 84.6 µM.
For the molecule `NC(=O)c1cc2ccccc2oc1=Nc1ccccc1`, the TGI was over 100 µM.

The subject of another experiment is MOLT-4 leukemia. In words: inhibition of tumour cell growth, NCI panel, 48 h.
Molecule `C=C(c1ccccc1)C1ON(C)CCc2cc(OC)c(OC)cc21` (stereo unspecified) yielded a TGI of over 100 µM.
The molecule `Cc1c2cnccc2c(C)c2c1[nH]c1ccc(O)cc12` showed a TGI of over 10 µM.
Take `C=C1C(=O)C([Si](C)(C)C)=C2C=C(C)C3(CC3)C12C` (stereo unspecified): the TGI was 11.9 µM.
In the case of `NC(=O)c1cc2ccccc2oc1=Nc1ccccc1`, the TGI was over 100 µM.

In the next experiment the test system is OVCAR-4 ovarian. In words: inhibition of tumour cell growth, NCI panel, 48 h.
Turning to `Cc1c2cnccc2c(C)c2c1[nH]c1ccc(O)cc12`, the TGI is 8 µM.
`C=C1C(=O)C([Si](C)(C)C)=C2C=C(C)C3(CC3)C12C` (stereo unspecified) had a TGI of over 100 µM.
For `NC(=O)c1cc2ccccc2oc1=Nc1ccccc1`, the TGI is over 100 µM.

In a further experiment the test system is U251 CNS. Put plainly: inhibition of tumour cell growth, NCI panel, 48 h.
`C=C(c1ccccc1)C1ON(C)CCc2cc(OC)c(OC)cc21` (stereo unspecified): the TGI was over 100 µM.
In turn, `Cc1c2cnccc2c(C)c2c1[nH]c1ccc(O)cc12` displayed a TGI of over 10 µM.
Same read-out and setting: next, `C=C1C(=O)C([Si](C)(C)C)=C2C=C(C)C3(CC3)C12C` (stereo unspecified): over 100 µM; `NC(=O)c1cc2ccccc2oc1=Nc1ccccc1`: over 100 µM.

A further experiment has as its system NCI-H522 lung. In words: inhibition of tumour cell growth, NCI panel, 48 h.
As for `C=C(c1ccccc1)C1ON(C)CCc2cc(OC)c(OC)cc21` (stereo unspecified), the TGI was over 100 µM.
Same read-out and setting: next, `Cc1c2cnccc2c(C)c2c1[nH]c1ccc(O)cc12`: over 10 µM; `C=C1C(=O)C([Si](C)(C)C)=C2C=C(C)C3(CC3)C12C` (stereo unspecified): 66.2 µM.

For the next experiment, the system named is MCF7 breast. In words: inhibition of tumour cell growth, NCI panel, 48 h.
Consider `C=C(c1ccccc1)C1ON(C)CCc2cc(OC)c(OC)cc21` (stereo unspecified), for which the TGI turned out to be 48.3 µM.
Same read-out and setting: the value for `Cc1c2cnccc2c(C)c2c1[nH]c1ccc(O)cc12` was 5.34 µM.
In turn, `C=C1C(=O)C([Si](C)(C)C)=C2C=C(C)C3(CC3)C12C` (stereo unspecified) displayed a TGI of 70.4 µM.
In the case of `NC(=O)c1cc2ccccc2oc1=Nc1ccccc1`, the TGI was over 100 µM.
